The experiment concerns VSV. The experiment is classed as cell-based, Vesicular stomatitis virus.

Values joined by “and” are separate entries in the source; they are usually repeats but may differ in a detail not shown here. Equal entries are not always repeated.

On to Human IFNγ, for which the “Effect on virus yield” value is recorded as “had no effect”.

B1: muIFNγ (protein, UniProt P01580 23-155, looked up)
Interferon gamma: HGTVIESLESLNNYFNSSGIDVEEKSLFLDIWRNWQKDGDMKILQSQIISFYLRLFEVLKDNQAISNNISVIESHLITTFFSNSKAKKDAFMSIAKFEVNNPQVQRQAFNELIRVVHQLLPESSLRKRKRSRC
Take B1: the Virus yield was 1.2 × 10^8 and 1.6 × 10^10.

The values are drawn from US6120762A, “C-terminal peptides of interferon γ” (priority 1998, dated 2000).
